Results as given in US6548268B1, “Chromogenic medium for detecting Staphylococcus aureus” (priority 1999, dated 2003).

Columns and labels:
[1] = tested on: Staphylococcus aureus; conditions: chromogenic agent in culture medium
Text: (§1) The term “chromogenic agent” is understood to denote a compound which changes color in the presence of a specific strain, in particular under the effect of the enzymatic system of said strain.

[2] = tested on: Staphylococcus aureus; test: Growth inhibition in the culture medium; format: cell-based; conditions: deferoxamine in the culture medium
Text: The concentration used will preferably be between 0.010 and 0.100 g/l.

[3] = tested on: Streptococcus strains; conditions: chromogenic agent in culture medium; a large number of Streptococcus strains
Text: as §1

Compound | Staining in the presence of S. aureus [1] | Inhibition of growth of Staphylococcus aureus [2] | Staining of Streptococcus strains [3]
5-bromo-4-chloro-3-indoxyl galactoside | negative | – | –
CC(=O)N(O)CCCCCNC(=O)CCC(=O)N(O)CCCCCNC(=O)CCC(=O)N(O)CCCCCN [deferoxamine] | – | without inhibiting | –
5-bromo-6-chloro-3-indoxyl phosphate | mauve staining | – | –
5-bromo-4-chloro-3-indoxyl glucuronide | negative | – | –
5-bromo-4-chloro-3-indoxyl glucoside | without staining | – | stains blue
